{
  "source": "patent USRE42014E1",
  "about": "“Pharmaceutical compositions” (Novartis AG, priority 1996, dated 2010)",
  "key": {"[1]": {"conditions": "per 100 ml of a 10% fat emulsion", "method": "(§1) The solubilization efficacy was determined by filtering the drug loaded fat emulsion through a 0.2 micron Nuclepore filter. Drug compound which is not solubilized was held back by the filter and determined gravimetrically and/or by HPLC measurements."}, "[2]": {"test": "Solubilization of active agent in fat emulsions: filtration through 0.2 micron Nuclepore filter, retained drug determined gravimetrically and/or by HPLC", "method": "as §1\nFurther sodium oleate was used, instead of POPG.Na.\nPropylene glycol was then used to replace a part of the ethanol content."}},
  "data": [
    {"smiles": "C/C=C/C[C@@H](C)C(=O)[C@H]1C(=O)N[C@@H](C(C)C)C(=O)N(C)CC(=O)N(C)[C@@H](CC(C)C)C(=O)N[C@@H](C(C)C)C(=O)N(C)[C@@H](CC(C)C)C(=O)N[C@@H](C)C(=O)N[C@H](C)C(=O)N(C)[C@@H](CC(C)C)C(=O)N(C)[C@@H](CC(C)C)C(=O)N(C)[C@@H](C(C)C)C(=O)N1C", "note": "[PSC 833, [3′-desoxy-3′-oxo-MeBmt]^1-[Val]^2-Ciclosporin]", "values": [
      {"measurement": "PSC 833 solubilized by 100 ml of a 10% fat emulsion", "setting": "[1]", "result": "up to 2 gram"},
      {"measurement": "PSC 833 solubilized", "setting": "[2]; plain PSC 833 solution in ethanol injected into a fat emulsion, after 30 minutes, no stabiliser", "result": 87, "unit": "%"},
      {"measurement": "PSC 833 retained on the filter", "setting": "[2]; with POPG.Na or sodium oleate, after 5 minutes, determined by HPLC", "result": "less than 0.1%"}
    ]}
  ]
}
